Results reported in ChEMBL document CHEMBL4507298 (2021).

How the values were obtained:
[1] = biological target: Adrenergic receptor alpha-1 (Homo sapiens) (UniProt P35348+P25100+P35368); experiment: alpha 1 (non- selective) CEREP ligand profiling; type: protein assay; conditions: Compound concentration 10.0 uM
[2] = biological target: Tyrosine-protein kinase ZAP-70 (Homo sapiens) (UniProt P43403); experiment: ZAP70 kinase (h) CEREP ligand profiling; conditions: Compound concentration 10.0 uM
[3] = biological target: Mitogen-activated protein kinase 6 (Homo sapiens) (UniProt Q16659); conditions: Compound concentration 1000.0 nM
Chain of Mitogen-activated protein kinase 6 (Homo sapiens) (Q16659 whole entry): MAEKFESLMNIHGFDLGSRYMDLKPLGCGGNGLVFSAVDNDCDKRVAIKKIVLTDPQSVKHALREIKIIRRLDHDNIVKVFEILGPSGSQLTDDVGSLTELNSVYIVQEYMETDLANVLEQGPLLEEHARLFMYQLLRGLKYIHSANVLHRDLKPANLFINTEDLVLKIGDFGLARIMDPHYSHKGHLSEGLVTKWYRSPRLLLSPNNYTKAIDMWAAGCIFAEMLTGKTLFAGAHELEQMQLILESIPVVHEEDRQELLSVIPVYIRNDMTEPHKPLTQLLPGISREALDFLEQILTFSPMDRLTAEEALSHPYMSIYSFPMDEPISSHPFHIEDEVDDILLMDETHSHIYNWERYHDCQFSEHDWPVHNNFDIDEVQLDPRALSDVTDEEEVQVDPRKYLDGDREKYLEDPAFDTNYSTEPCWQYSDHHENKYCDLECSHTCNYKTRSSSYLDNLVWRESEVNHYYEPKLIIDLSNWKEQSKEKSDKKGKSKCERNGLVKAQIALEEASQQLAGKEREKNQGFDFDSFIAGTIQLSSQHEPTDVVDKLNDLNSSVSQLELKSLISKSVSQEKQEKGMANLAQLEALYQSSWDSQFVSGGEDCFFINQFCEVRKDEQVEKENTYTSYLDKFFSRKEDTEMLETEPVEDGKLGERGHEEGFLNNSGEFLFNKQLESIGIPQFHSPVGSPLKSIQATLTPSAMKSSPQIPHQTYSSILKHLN

Chain of Tyrosine-protein kinase ZAP-70 (Homo sapiens) (P43403 whole entry): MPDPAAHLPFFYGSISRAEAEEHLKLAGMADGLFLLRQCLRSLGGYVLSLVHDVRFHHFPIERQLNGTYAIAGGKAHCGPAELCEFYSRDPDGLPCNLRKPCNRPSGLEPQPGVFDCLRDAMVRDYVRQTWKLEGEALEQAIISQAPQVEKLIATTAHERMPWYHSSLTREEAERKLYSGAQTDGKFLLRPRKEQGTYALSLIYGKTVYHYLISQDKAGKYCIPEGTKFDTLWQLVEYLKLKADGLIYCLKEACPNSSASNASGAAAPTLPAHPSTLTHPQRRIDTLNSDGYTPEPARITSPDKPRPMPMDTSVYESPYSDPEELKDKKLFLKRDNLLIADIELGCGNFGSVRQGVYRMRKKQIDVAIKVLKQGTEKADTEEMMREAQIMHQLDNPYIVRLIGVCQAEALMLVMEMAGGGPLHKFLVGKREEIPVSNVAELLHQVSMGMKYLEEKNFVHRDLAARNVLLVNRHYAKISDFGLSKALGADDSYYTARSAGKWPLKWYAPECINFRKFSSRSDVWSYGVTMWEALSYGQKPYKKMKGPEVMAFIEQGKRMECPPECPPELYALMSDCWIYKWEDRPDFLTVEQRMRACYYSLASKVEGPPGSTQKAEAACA

COc1ccc2cc(OCC3(C(=O)O)CN(C(=O)c4ccc(F)cc4)C3)ccc2c1 [PF-04418948]
inactive: inhibition [1] 9% | inhibition [2] 9% | residual activity [3] 88%
